Laboratory results as given in PMC6518372, “An enzymatically stable GIP/xenin hybrid peptide restores GIP sensitivity, enhances beta cell function and improves glucose homeostasis in high-fat-fed mice” (Diabetologia, 2016).

System: BRIN-BD11 cells
Assay: Intracellular Ca2+ in BRIN-BD11 cells (FLIPR Calcium 5)
Assay type: cell-based, rat
Details: peptide 10^−6 mol/l, 5.6 mmol/l glucose, 5 min, AUC 0–300 s
Description: BRIN-BD11 cells were used to assess the insulin-releasing activity of test peptides, as described previously. This hybrid cell line (ECACC 10033003) was originally generated in-house by electrofusion of a primary culture of New England Deaconess Hospital (NEDH) rat pancreatic islets with RINm5F (a cell line derived from an NEDH rat insulinoma), and has been mycoplasma eradicated. For details of experimental conditions please see ESM Methods. Insulin was measured by radioimmunoassay. We assessed the impact of GIP and neurotensin receptors on (DAla^2)GIP/xenin-8-Gln-induced insulin secretion in BRIN-BD11 cells. Cells were incubated in 5.6 mmol/l glucose with (DAla^2)GIP/xenin-8-Gln (10^−6 mol/l) alone or in combination with the GIP receptor antagonist GIP(6-30)Cex-K^40[Pal] [32] (where Pal is palmitate) or the neurotensin receptor antagonist SR142948A (Sigma, Poole, UK), and insulin secretion determined as described above. In addition, to determine mechanisms, intracellular Ca^2+ was also measured in BRIN-BD11 cells following treatment with test peptides (10^−6 mol/l), using a Flexstation scanning fluorometer (FLIPR Calcium 5 assay kit; Molecular Devices, Sunnyvale, CA, USA), as described previously.

Structure (SMILES): CC[C@H](C)[C@H](NC(=O)[C@H](CO)NC(=O)[C@H](Cc1ccc(O)cc1)NC(=O)[C@H](CC(=O)O)NC(=O)[C@H](CO)NC(=O)[C@@H](NC(=O)[C@H](Cc1ccccc1)NC(=O)[C@@H](NC(=O)CNC(=O)[C@H](CCC(=O)O)NC(=O)[C@@H](C)NC(=O)[C@@H](N)Cc1ccc(O)cc1)[C@@H](C)O)[C@@H](C)CC)C(=O)N[C@@H](C)C(=O)N[C@@H](CCSC)C(=O)N[C@@H](CC(=O)O)C(=O)N[C@@H](CCCCN)C(=O)N[C@H](C(=O)N[C@@H](Cc1c[nH]cn1)C(=O)N[C@@H](CCC(N)=O)C(=O)N[C@@H](CCC(N)=O)C(=O)N[C@@H](CC(=O)O)C(=O)N[C@@H](Cc1ccccc1)C(=O)N[C@H](C(=O)N[C@@H](CC(N)=O)C(=O)N[C@@H](Cc1c[nH]c2ccccc12)C(=O)N[C@@H](CC(C)C)C(=O)N[C@@H](CC(C)C)C(=O)N[C@@H](C)C(=O)N[C@@H](CCC(N)=O)C(=O)N[C@@H](CCCCN)C(=O)NCC(=O)N[C@@H](CCCCN)C(=O)N[C@@H](CCCCN)C(=O)N[C@@H](CC(N)=O)C(=O)N[C@@H](CC(=O)O)C(=O)N[C@@H](Cc1c[nH]c2ccccc12)C(=O)N[C@@H](CCCCN)C(=O)N[C@@H](Cc1c[nH]cn1)C(=O)N[C@@H](CC(N)=O)C(=O)N[C@H](C(=O)N[C@H](C(=O)N[C@@H](CCC(N)=O)C(=O)O)[C@@H](C)O)[C@@H](C)CC)C(C)C)[C@@H](C)CC [(DAla^2)GIP]
- Effect on intracellular Ca^2+ concentrations: Neither, (DAla^2)GIP, xenin-8-Gln nor (DAla^2)GIP/xenin-8-Gln had any effect
